The values below come from US20250091989A1, “SMALL MOLECULE PROTEIN SYNTHESIS MODULATORS” (Interdict Bio, Inc., priority 2023, published 2025).

What is called IC50 is the point on the concentration scale where inhibition reaches its midpoint.

What all share (type): biochemical
What all share (details): HeLa S3 lysate, sfGFP/mCherry ratio, 2 hrs at 30° C.

Assay [1] relates to ALK. Briefly: In vitro transcription-translation (IVTT) reporter assay, ALK test sequence. From the text:
(§1) All reporter constructs have been cloned into the pT7CFE1-CHis plasmid (ThermoFisher #88860) using Gibson assembly procedures (NEB #E2611L). The parental pT7CFE1-CHis plasmid contains an EMCV IRES at the 5′UTR for translation initiation, a multiple-cloning site (MCS) for gene insertion, an optional C-terminal His-epitope tag, and polyA sequence in the 3′UTR to regulate mRNA stability. All reporters are designed to be inserted at the MCS to include a red fluorescent protein (mCherry), P2A self-cleaving peptide which releases the preceding mCherry protein product, and a fusion open reading frame containing a 3×FLAG epitope, a peptide sequence of interest (TEST), and green fluorescent protein (sfGFP).
(§2) Construct Plasmid Preparation: All plasmids are isolated from MACH1 cells (ThermoFisher) grown overnight in ampicillin-containing luria broth, and purified using ZymoPure Express Plasmid Midiprep Kit (Zymo Research). Constructs are sequenced verified and diluted to a working concentration of 110 ng/μL.
(§3) HeLa S3 Lysate Preparation: HeLa S3 cell pellets are acquired from Ipracell/Ipratech (Belgium) and shipped as 4 mL frozen cell pellets on dry ice for storage at −80° C. until use. The procedure for lysate preparation is as follows. Prepare 1× Lysis Buffer, cold and stored on ice:
(§4) Each preparation takes 8 cell pellets (4 ml packed volume each, approximately 1.0×10^9 cells per pellet). Thaw cell pellets from −80° C. on ice for 90 mins. Lay pellets horizontally on top of the ice and rotate every 30 mins to ensure even thawing. Once thawed, add 4 mL of cold lysis buffer to each pellet, and using a serological pipet, gently pipet up and down to break up clumps. Incubate resuspended cells in ice for an additional 30 mins (plunged into ice). During 30 min incubation, rinse and RNase-zap (Ambion) glass dounces (use loose pestle “A”), gently dry and place on ice until needed. Prepare RNase-free Eppendorf tubes for spinning and for batch storage. Add batch labels to 1.5-1.7 mL RNase-free microcentrifuge tubes (labeling scheme below). Each batch will have an extra 1.5-1.7 mL RNase-free microcentrifuge tube for 40 μL of lysate, label the top of this tube (labeling scheme below). After 30 min incubation, transfer all 8 mL of cell pellet to dounce. Cell lysis is complete after douncing 100 times. Aliquot cell lysis into 1.5-1.7 mL temporary-microcentrifuge tubes. Place tubes in centrifuge with “fins” out, and spin at 1,200 xg for 5 mins. After the first spin use a 1 mL pipet to resuspend each tube and repeat spin. This acts as an additional lysis step, is more vigorous and increases lysate yield. During second spin get liquid N2 and a fresh conical tube on ice.
(§5) After spin is complete, transfer supernatant (lysate) from microcentrifuge tubes into the 50 mL conical tube and keep on ice. Repeat steps 10-14 for all other cell pellets until completed. Once all cell lysate has been transferred to the 50 mL conical tube pipet to mix so the solution is homogenous. Transfer 1 mL of lysate into batch-labeled microcentrifuge tubes and flash freeze in liquid nitrogen. Be sure to pipet up and down to mix throughout transfer step. Place all tubes in the […] for long-term storage.
(§6) In vitro transcription-translation assay setup: Each assay includes a master mix containing lysate and shared components, a 96-well plate containing compound titrations for testing, a 96-well DNA plate with reporter constructs to be tested, 96-well skirted PCR plates, and 96-well flat-bottom, black, fluorescent assay plates. […]

Assay [2] concerns MYC. Briefly: In vitro transcription-translation (IVTT) reporter assay, MYC test sequence.
Description: as §1, §2, §3, §4, §5, §6
(In a reporter assay the amount or activity of a reporter protein is the signal.)

Assay [3] has as its system KRAS G12D. Briefly: In vitro transcription-translation (IVTT) reporter assay, KRAS G12D test sequence.
Description: as §1, §2, §3, §4, §5, §6

As to `C=C(F)C(=O)O[C@@H]1[C@@H](O)CN[C@@H]1Cc1ccc(OC)cc1` [V0081, (2R,3S,4S)-4-hydroxy-2-[(4-methoxyphenyl)methyl]pyrrolidin-3-yl 2-fluoroprop-2-enoate], the IC50 in assay [1], in assay [2] and in assay [3] was above 30 µM in each case.
For `COc1ccc(C[C@H]2NC[C@H](O)[C@H]2OC(=O)c2ccc(C(=O)C(F)(F)F)cc2)cc1` [V0092, (2R,3S,4S)-4-hydroxy-2-[(4-methoxyphenyl)methyl]pyrrolidin-3-yl 4-(2,2,2-trifluoroacetyl)benzoate], the IC50 in assay [1], in assay [2] and in assay [3] was above 30 µM throughout.
For the molecule `COc1ccc(C[C@H]2NC[C@H](O)[C@H]2OC(=O)C2COC2)cc1` [V0106, (2R,3S,4S)-4-hydroxy-2-[(4-methoxyphenyl)methyl]pyrrolidin-3-yl oxetane-3-carboxylate], the IC50 in assay [1] was below 10 µM; in assay [2], 10 to 20 µM; in assay [3] it was 20 to 30 µM.
Consider `COc1ccc(C[C@H]2NC[C@H](O)[C@H]2OC(=O)C2CNC2)cc1` [V0107, (2R,3S,4S)-4-hydroxy-2-[(4-methoxyphenyl)methyl]pyrrolidin-3-yl azetidine-3-carboxylate], for which the results for the IC50 in assay [1], in assay [2] and in assay [3] were 20 to 30 µM, above 30 µM and above 30 µM, respectively.
For `COc1ccc(C[C@H]2NC[C@H](O)[C@H]2OC(=O)CC2COC2)cc1` [V0111, (2R,3S,4S)-4-hydroxy-2-[(4-methoxyphenyl)methyl]pyrrolidin-3-yl 2-(oxetan-3-yl)acetate], the IC50 in assay [1], in assay [2] and in assay [3] was below 10 µM throughout.
On to `COc1ccc(C[C@H]2NC[C@H](O)[C@H]2OC(=O)CC2CC2)cc1` [V0113, (2R,3S,4S)-4-hydroxy-2-[(4-methoxyphenyl)methyl]pyrrolidin-3-yl 2-cyclopropylacetate], for which the IC50 in assay [1], in assay [2] and in assay [3] was below 10 µM throughout.
Consider `COc1ccc(C[C@H]2NC[C@H](O)[C@H]2OC(=O)CC[C@@H]2NC(=O)CNC2=O)cc1` [V000144, (2R,3S,4S)-4-hydroxy-2-[(4-methoxyphenyl)methyl]pyrrolidine-3-yl 3-[(2S)-3,6-dioxopiperazin-2-yl]propanoate], for which the IC50 in assay [1] was below 10 µM; in assay [2] it was below 10 µM; in assay [3], above 30 µM.
On to `COc1ccc(C[C@H]2NC[C@H](O)[C@H]2OC(=O)c2ccc3onc(N)c3c2)cc1` [V000148, (2R,3S,4S)-4-hydroxy-2-[(4-methoxyphenyl)methyl]pyrrolidin-3-yl 3-amino-1,2-benzoxazole-5-carboxylate], for which the IC50 in assay [1], in assay [2] and in assay [3] was above 30 µM throughout.
As for `COc1ccc(C[C@H]2NC[C@H](O)[C@H]2OC(=O)C2CN(Cc3ccccc3)C2)cc1` [V000173, (2R,3S,4S)-4-hydroxy-2-[(4-methoxyphenyl)methyl]pyrrolidin-3-yl 1-benzylazetidine-3-carboxylate], the IC50 in assay [1], in assay [2] and in assay [3] was above 30 µM each time.
For the molecule `COc1ccc(C[C@H]2NC[C@H](O)[C@H]2OC(=O)C2(OCc3ccccc3)CNC2)cc1` [V000192, (2R,3S,4S)-4-hydroxy-2-(4-methoxybenzyl) pyrrolidin-3-yl 3-(benzyloxy)azetidine-3-carboxylate], the IC50 in assay [1], in assay [2] and in assay [3] was above 30 µM each time.
As for `COc1ccc(C[C@H]2NC[C@H](O)[C@H]2OC(=O)c2ccc(S(=O)(=O)N(C)C)cc2)cc1` [V000198, (2R,3S,4S)-4-hydroxy-2-[(4-methoxyphenyl)methyl]pyrrolidin-3-yl 4-(dimethylsulfamoyl)benzoate], the concentration for half-maximal inhibition (IC50) in assay [1], in assay [2] and in assay [3] was above 30 µM in each case.
For the molecule `COc1ccc(C[C@H]2NC[C@H](O)[C@H]2OC(=O)CNc2c(N)c(=O)c2=O)cc1` [V000215, (2R,3S,4S)-4-hydroxy-2-[(4-methoxyphenyl)methyl]pyrrolidin-3-yl 2-[(2-amino-3,4-dioxocyclobut-1-en-1-yl)amino]acetate], the IC50 in assay [1], in assay [2] and in assay [3] was below 10 µM throughout.
Take `COc1ccc(C[C@H]2NC[C@H](O)[C@H]2OC(=O)C2CCS(=N)(=O)CC2)cc1` (stereo partly drawn) [V186712, (2R,3S,4S)-4-hydroxy-2-[(4-methoxyphenyl)methyl]pyrrolidin-3-yl (1 s)-1-imino-1-oxo-1lambda6-thiane-4-carboxylate]: the IC50 in assay [1], in assay [2] and in assay [3] was above 30 µM each time.
Take `COc1ccc(C[C@H]2NC[C@H](O)[C@H]2OC(=O)CN)cc1` [V186760, (2R,3S,4S)-4-hydroxy-2-[(4-methoxyphenyl)methyl]pyrrolidin-3-yl 2-aminoacetate]: the figures for the IC50 in assay [1], in assay [2] and in assay [3] were below 10 µM, below 10 µM and 20 to 30 µM, respectively.
For the molecule `COc1ccc(C[C@H]2NC[C@H](O)[C@H]2OC(=O)C2CCOC2)cc1` (stereo partly drawn) [V186761, (2R,3S,4S)-4-hydroxy-2-[(4-methoxyphenyl)methyl]pyrrolidin-3-yl oxolane-3-carboxylate], the IC50 in assay [1] was below 10 µM; in assay [2] it was below 10 µM; in assay [3], above 30 µM.
In the case of `COc1ccc(C[C@H]2NC[C@H](O)[C@H]2OC(=O)C2CN(CC3COC3)C2)cc1` [V186772, (2R,3S,4S)-4-hydroxy-2-[(4-methoxyphenyl)methyl]pyrrolidin-3-yl 1-(oxetan-3-ylmethyl)azetidine-3-carboxylate], the IC50 in assay [1], in assay [2] and in assay [3] was above 30 µM in each case.
On to `COc1ccc(C[C@H]2NC[C@H](O)[C@H]2OC(=O)C2CC(F)(F)C2)cc1` [V186775, (2R,3S,4S)-4-hydroxy-2-[(4-methoxyphenyl)methyl]pyrrolidin-3-yl 3,3-difluorocyclobutane-1-carboxylate], for which the IC50 in assay [1] was below 10 µM; in assay [2] it was below 10 µM; in assay [3], 20 to 30 µM.
For `COc1ccc(C[C@H]2NC[C@H](O)[C@H]2OC(=O)CCCCC(C)C)cc1` [V186779], the IC50 in assay [1], in assay [2] and in assay [3] was below 10 µM each time.
As for `COc1ccc(C[C@H]2NC[C@H](O)[C@H]2OC(=O)C2CSSC2)cc1` [V186868, (2R,3S,4S)-4-hydroxy-2-[(4-methoxyphenyl)methyl]pyrrolidin-3-yl 1,2-dithiolane-4-carboxylate; trifluoroacetic acid], the IC50 in assay [1] and in assay [3] was above 30 µM each time.
For the molecule `COc1ccc(C[C@H]2NC[C@H](O)[C@H]2OC(=O)CN2CC3(C2)CC(F)(F)C3)cc1` [V187067, (2R,3S,4S)-4-hydroxy-2-[(4-methoxyphenyl)methyl]pyrrolidin-3-yl 2-{6,6-difluoro-2-azaspiro[3.3]heptan-2-yl}acetate], the values for the half-inhibitory concentration (IC50) in assay [1] and in assay [3] were below 10 µM and 10 to 20 µM, respectively.
Consider `COc1ccc(C[C@H]2NC[C@H](O)[C@H]2OC(=O)COC2CC(F)(F)C2)cc1` [V187171, (2R,3S,4S)-4-hydroxy-2-[(4-methoxyphenyl)methyl]pyrrolidin-3-yl 2-(3,3-difluorocyclobutoxy)acetate; trifluoroacetic acid], for which the IC50 in assay [1] and in assay [3] was below 10 µM throughout.
`COc1ccc(C[C@H]2NC[C@H](O)[C@H]2OC(=O)CNc2c(NCc3ccccc3)c(=O)c2=O)cc1` [V187517, (2R,3S,4S)-4-hydroxy-2-[(4-methoxyphenyl)methyl]pyrrolidin-3-yl 2-{[2-(benzylamino)-3,4-dioxocyclobut-1-en-1-yl]amino}acetate; trifluoroacetic acid]: the IC50 is below 10 µM in assay [1] and 20 to 30 µM in assay [3].
